Measurements reported in patent publication US20120122860A1, “SOLID FORMS OF SULFONAMIDES AND AMINO ACIDS” (Plexxikon, Inc., priority 2009, published 2012).

Columns and labels:
B-Raf = B-Raf (Homo sapiens, UniProt P15056); assay: Kinase activity assay, B-Raf; type: biochemical; conditions: read-out: activity toward kinase B-Raf, IC50
B-Raf V600E = B-Raf V600E (Homo sapiens, UniProt P15056, V600E); assay: Kinase activity assay, B-Raf V600E; type: biochemical; conditions: read-out: activity toward kinase B-Raf V600E, IC50
Fms = Fms (Homo sapiens, UniProt P07333); assay: Kinase activity assay, Fms
Fms, sequence (P07333 20-972): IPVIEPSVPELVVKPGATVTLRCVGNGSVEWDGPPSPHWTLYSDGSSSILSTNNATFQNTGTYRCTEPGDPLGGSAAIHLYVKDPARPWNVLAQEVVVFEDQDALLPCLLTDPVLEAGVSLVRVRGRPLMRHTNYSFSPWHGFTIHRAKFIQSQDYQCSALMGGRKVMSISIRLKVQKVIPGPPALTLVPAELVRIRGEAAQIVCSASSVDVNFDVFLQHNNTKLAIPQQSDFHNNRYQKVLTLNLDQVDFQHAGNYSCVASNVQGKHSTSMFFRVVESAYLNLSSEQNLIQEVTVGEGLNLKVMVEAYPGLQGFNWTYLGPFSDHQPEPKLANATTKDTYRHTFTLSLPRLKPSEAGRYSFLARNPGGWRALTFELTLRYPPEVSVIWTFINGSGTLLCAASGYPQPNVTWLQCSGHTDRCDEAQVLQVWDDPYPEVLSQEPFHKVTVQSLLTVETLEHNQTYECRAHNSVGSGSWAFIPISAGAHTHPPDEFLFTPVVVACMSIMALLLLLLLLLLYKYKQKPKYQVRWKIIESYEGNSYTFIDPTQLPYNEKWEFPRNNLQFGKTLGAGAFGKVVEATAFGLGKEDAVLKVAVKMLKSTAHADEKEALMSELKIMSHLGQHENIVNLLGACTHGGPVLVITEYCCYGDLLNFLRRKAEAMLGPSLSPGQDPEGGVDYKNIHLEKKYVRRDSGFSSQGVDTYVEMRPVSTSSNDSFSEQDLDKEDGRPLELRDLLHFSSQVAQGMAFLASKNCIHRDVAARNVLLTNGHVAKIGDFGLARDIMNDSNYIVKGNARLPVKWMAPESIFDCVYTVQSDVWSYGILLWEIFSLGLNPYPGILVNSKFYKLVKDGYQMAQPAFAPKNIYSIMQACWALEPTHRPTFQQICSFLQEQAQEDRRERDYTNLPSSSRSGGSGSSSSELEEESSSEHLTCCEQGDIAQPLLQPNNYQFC

Kdr = Kdr (Homo sapiens, UniProt P35968); assay: Kinase activity assay, Kdr
Kdr, sequence (P35968 20-1356): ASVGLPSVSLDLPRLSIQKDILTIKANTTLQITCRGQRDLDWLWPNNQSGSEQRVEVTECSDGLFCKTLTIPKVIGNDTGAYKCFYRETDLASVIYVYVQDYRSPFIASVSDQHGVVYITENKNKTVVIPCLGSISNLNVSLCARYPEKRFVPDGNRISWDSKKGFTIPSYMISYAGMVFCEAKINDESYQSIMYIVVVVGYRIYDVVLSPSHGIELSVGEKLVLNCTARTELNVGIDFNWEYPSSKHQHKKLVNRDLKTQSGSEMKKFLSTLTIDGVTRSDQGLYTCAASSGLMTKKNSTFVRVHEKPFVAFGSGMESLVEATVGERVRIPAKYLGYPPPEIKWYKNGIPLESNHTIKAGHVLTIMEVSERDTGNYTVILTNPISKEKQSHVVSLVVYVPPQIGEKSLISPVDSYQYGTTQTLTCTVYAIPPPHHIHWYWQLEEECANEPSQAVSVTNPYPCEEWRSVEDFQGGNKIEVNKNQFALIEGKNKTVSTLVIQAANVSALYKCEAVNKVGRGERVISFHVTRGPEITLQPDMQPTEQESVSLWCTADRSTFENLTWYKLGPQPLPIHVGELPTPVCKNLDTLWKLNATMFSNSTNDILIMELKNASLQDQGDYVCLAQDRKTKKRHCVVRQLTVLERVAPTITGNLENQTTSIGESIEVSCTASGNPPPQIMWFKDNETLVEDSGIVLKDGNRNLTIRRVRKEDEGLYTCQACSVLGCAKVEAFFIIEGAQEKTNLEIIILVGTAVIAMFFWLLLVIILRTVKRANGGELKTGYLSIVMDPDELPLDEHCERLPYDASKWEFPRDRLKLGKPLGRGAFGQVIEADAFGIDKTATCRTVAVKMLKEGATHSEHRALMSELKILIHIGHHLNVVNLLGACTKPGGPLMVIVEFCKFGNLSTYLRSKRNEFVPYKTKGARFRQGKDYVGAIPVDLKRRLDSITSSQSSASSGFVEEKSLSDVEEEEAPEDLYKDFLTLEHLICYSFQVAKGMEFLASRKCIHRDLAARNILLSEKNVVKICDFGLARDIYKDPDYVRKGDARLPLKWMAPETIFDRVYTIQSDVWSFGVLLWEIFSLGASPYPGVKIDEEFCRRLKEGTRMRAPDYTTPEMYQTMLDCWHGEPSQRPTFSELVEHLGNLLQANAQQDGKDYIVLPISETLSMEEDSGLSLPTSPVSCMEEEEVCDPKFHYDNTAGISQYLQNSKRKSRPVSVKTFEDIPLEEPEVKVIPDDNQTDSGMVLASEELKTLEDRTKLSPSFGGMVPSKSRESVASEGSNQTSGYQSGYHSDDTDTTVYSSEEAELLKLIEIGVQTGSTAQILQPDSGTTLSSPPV

Kit = Kit (Homo sapiens, UniProt P10721); assay: Kinase activity assay, Kit
Kit, sequence (P10721 26-976): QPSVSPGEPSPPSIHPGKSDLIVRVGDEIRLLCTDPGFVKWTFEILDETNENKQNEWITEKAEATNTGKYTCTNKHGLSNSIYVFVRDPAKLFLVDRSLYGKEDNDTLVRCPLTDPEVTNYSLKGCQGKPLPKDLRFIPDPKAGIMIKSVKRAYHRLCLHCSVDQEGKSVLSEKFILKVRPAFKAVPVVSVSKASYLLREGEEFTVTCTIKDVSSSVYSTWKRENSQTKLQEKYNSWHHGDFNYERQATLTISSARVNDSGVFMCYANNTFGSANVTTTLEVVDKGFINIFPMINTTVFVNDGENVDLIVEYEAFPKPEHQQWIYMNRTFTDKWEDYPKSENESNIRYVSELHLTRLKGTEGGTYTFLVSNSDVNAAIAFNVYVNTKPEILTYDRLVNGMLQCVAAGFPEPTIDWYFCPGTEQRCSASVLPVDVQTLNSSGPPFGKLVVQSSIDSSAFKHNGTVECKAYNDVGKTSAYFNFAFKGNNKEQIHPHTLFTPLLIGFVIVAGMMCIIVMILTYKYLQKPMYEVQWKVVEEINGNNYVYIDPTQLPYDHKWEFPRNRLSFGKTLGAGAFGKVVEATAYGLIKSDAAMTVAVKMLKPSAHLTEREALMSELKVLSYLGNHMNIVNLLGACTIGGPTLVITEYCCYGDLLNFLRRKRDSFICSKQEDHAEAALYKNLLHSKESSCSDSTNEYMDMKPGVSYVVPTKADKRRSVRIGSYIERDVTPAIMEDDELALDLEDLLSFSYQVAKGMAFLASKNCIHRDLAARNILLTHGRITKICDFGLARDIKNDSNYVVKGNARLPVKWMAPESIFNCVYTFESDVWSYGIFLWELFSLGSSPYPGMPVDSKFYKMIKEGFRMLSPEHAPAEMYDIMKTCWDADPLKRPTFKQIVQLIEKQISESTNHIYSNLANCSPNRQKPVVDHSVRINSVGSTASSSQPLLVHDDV

Src = Src (Homo sapiens, UniProt P12931); assay: Kinase activity assay, Src
Src, sequence (P12931 whole entry): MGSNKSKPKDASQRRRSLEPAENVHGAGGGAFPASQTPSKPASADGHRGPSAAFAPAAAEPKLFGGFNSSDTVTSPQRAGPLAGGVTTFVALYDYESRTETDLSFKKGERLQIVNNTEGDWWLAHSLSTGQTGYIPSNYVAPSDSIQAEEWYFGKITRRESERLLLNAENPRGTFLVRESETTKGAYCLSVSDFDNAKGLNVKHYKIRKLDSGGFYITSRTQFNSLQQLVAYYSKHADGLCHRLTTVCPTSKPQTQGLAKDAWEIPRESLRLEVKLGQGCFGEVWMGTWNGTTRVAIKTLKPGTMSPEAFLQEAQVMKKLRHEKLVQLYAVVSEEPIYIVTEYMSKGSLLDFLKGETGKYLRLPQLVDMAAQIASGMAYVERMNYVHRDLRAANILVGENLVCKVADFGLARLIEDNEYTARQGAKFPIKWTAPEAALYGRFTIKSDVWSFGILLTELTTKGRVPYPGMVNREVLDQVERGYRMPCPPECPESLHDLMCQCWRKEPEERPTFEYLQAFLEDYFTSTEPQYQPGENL

C-Raf = C-Raf (Homo sapiens, UniProt P04049); assay: Kinase activity assay, C-Raf
C-Raf, sequence (P04049 whole entry): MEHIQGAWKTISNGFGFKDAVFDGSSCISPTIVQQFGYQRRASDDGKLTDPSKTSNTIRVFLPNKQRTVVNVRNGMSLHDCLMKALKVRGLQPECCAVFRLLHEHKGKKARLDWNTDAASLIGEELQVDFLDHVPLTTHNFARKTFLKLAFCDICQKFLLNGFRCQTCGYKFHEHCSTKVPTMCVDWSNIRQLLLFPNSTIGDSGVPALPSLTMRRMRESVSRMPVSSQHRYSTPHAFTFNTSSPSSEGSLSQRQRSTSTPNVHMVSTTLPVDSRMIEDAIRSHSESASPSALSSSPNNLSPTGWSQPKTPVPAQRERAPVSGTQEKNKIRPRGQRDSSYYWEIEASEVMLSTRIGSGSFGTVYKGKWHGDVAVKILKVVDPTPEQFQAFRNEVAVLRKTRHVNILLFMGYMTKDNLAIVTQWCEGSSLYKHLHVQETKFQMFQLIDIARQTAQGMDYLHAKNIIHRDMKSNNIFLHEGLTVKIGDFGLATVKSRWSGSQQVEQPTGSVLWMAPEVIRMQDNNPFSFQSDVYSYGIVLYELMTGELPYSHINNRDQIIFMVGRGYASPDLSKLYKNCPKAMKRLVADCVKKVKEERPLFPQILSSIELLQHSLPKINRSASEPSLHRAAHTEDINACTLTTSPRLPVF

IC50 (B-Raf)	IC50 (B-Raf V600E)	IC50 (Fms)	IC50 (Kdr)	IC50 (Kit)	IC50 (Src)	IC50 (C-Raf)	Structure (SMILES)
≤ 10 µM	≤ 10 µM	≤ 10 µM	≤ 10 µM	≤ 10 µM	≤ 10 µM	≤ 10 µM	COc1ccc(S(=O)(=O)Nc2ccc(F)c(C(=O)c3c[nH]c4ncc(Cl)cc34)c2F)cc1F [P-2005, N-[3-(5-Chloro-1H-pyrrolo[2,3-b]pyridine-3-carbonyl)-2,4-difluoro-phenyl]-3-fluoro-4-methoxy-benzenesulfonamide]
≤ 10 µM	≤ 10 µM	≤ 10 µM	≤ 10 µM	≤ 10 µM	≤ 10 µM	≤ 10 µM	Cc1cc(F)ccc1S(=O)(=O)Nc1ccc(F)c(C(=O)c2c[nH]c3ncc(Cl)cc23)c1F [P-2006, N-[3-(5-Chloro-1H-pyrrolo[2,3-b]pyridine-3-carbonyl)-2,4-difluoro-phenyl]-4-fluoro-2-methyl-benzenesulfonamide]
≤ 10 µM	≤ 10 µM	≤ 10 µM	≤ 10 µM	≤ 10 µM	≤ 10 µM	≤ 10 µM	CCCS(=O)(=O)Nc1ccc(F)c(C(=O)c2c[nH]c3ncc(-c4cccc(O)c4)cc23)c1F [P-2179, Propane-1-sulfonic acid {2,4-difluoro-3-[5-(3-hydroxy-phenyl)-1H-pyrrolo[2,3-b]pyridine-3-carbonyl]-phenyl}-amide]
≤ 10 µM	≤ 10 µM	≤ 10 µM	≤ 10 µM	≤ 10 µM	≤ 10 µM	≤ 10 µM	CCCS(=O)(=O)Nc1ccc(F)c(C(=O)c2c[nH]c3ncc(-c4ccc(F)nc4)cc23)c1F [P-2155, Propane-1-sulfonic acid {2,4-difluoro-3-[5-(6-fluoro-pyridin-3-yl)-1H-pyrrolo[2,3-b]pyridine-3-carbonyl]-phenyl}-amide]
≤ 10 µM	≤ 10 µM	≤ 10 µM	≤ 10 µM	≤ 10 µM	≤ 10 µM	–	O=C(c1c(F)ccc(NS(=O)(=O)CCC(F)(F)F)c1F)c1c[nH]c2ncc(-c3ccc(F)cc3)cc12 [P-2326, 3,3,3-Trifluoro-propane-1-sulfonic acid {2,4-difluoro-3-[5-(4-fluoro-phenyl)-1H-pyrrolo[2,3-b]pyridine-3-carbonyl]-phenyl}-amide]
≤ 10 µM	≤ 10 µM	≤ 10 µM	≤ 10 µM	≤ 10 µM	≤ 10 µM	–	CC(C)CS(=O)(=O)Nc1ccc(F)c(C(=O)c2c[nH]c3ncc(-c4ccc(F)cc4)cc23)c1F [P-2298, 2-Methyl-propane-1-sulfonic acid {2,4-difluoro-3-[5-(4-fluoro-phenyl)-1H-pyrrolo[2,3-b]pyridine-3-carbonyl]-phenyl}-amide]
≤ 10 µM	≤ 10 µM	≤ 10 µM	≤ 10 µM	≤ 10 µM	≤ 10 µM	–	CCCS(=O)(=O)Nc1ccc(F)c(C(=O)c2c[nH]c3ncc(-c4ccc(C(=O)NC)nc4)cc23)c1F [P-2180, 5-{3-[2,6-Difluoro-3-(propane-1-sulfonylamino)-benzoyl]-1H-pyrrolo[2,3-b]pyridin-5-yl}-pyridine-2-carboxylic acid methylamide]
≤ 10 µM	≤ 10 µM	≤ 10 µM	–	≤ 10 µM	≤ 10 µM	≤ 10 µM	O=C(c1c(F)ccc(NS(=O)(=O)c2ccc3c(c2)CCO3)c1F)c1c[nH]c2ncc(Cl)cc12 [P-2007, 2,3-Dihydro-benzofuran-5-sulfonic acid [3-(5-chloro-1H-pyrrolo[2,3-b]pyridine-3-carbonyl)-2,4-difluoro-phenyl]-amide]
≤ 10 µM	≤ 10 µM	≤ 10 µM	≤ 10 µM	≤ 10 µM	≤ 10 µM	–	O=C(c1c(F)ccc(NS(=O)(=O)CC(F)(F)F)c1F)c1c[nH]c2ncc(Br)cc12 [P-2334, 2,2,2-Trifluoro-ethanesulfonic acid [3-(5-bromo-1H-pyrrolo[2,3-b]pyridine-3-carbonyl)-2,4-difluoro-phenyl]-amide]
≤ 10 µM	–	≤ 10 µM	≤ 10 µM	≤ 10 µM	≤ 10 µM	≤ 10 µM	CN1CCOc2cc(S(=O)(=O)Nc3ccc(F)c(C(=O)c4c[nH]c5ncc(Cl)cc45)c3F)ccc21 [P-2001, 4-Methyl-3,4-dihydro-2H-benzo[1,4]oxazine-7-sulfonic acid [3-(5-chloro-1H-pyrrolo[2,3-b]pyridine-3-carbonyl)-2,4-difluoro-phenyl]-amide]
≤ 10 µM	≤ 10 µM	≤ 10 µM	≤ 10 µM	≤ 10 µM	≤ 10 µM	–	Cn1cc(-c2cnc3[nH]cc(C(=O)c4cc(NS(=O)(=O)c5ccc(C(F)(F)F)cc5)ccc4F)c3c2)cn1 [P-2104, N-{4-Fluoro-3-[5-(1-methyl-1H-pyrazol-4-yl)-1H-pyrrolo[2,3-b]pyridine-3-carbonyl]-phenyl}-4-trifluoromethyl-benzenesulfonamide]
≤ 10 µM	≤ 10 µM	≤ 10 µM	≤ 10 µM	≤ 10 µM	≤ 10 µM	–	CCCS(=O)(=O)Nc1ccc(F)c(C(=O)c2c[nH]c3ncc(-c4ccc(C(=O)NC5CC5)nc4)cc23)c1F [P-2181, 5-{3-[2,6-Difluoro-3-(propane-1-sulfonylamino)-benzoyl]-1H-pyrrolo[2,3-b]pyridin-5-yl}-pyridine-2-carboxylic acid cyclopropylamide]
≤ 10 µM	≤ 10 µM	≤ 10 µM	≤ 10 µM	≤ 10 µM	≤ 10 µM	–	CCS(=O)(=O)Nc1ccc(F)c(C(=O)c2c[nH]c3ncc(Br)cc23)c1F [P-2268, Ethanesulfonic acid [3-(5-bromo-1H-pyrrolo[2,3-b]pyridine-3-carbonyl)-2,4-difluoro-phenyl]-amide]
≤ 10 µM	≤ 10 µM	≤ 10 µM	≤ 10 µM	≤ 10 µM	≤ 10 µM	–	CCCS(=O)(=O)Nc1ccc(F)c(C(=O)c2c[nH]c3ncc(-c4ccc(SC)nc4)cc23)c1F [P-2187]
≤ 10 µM	≤ 10 µM	≤ 10 µM	≤ 10 µM	≤ 10 µM	≤ 10 µM	–	CCCS(=O)(=O)Nc1ccc(F)c(C(=O)c2c[nH]c3ncc(-c4ccnn4C)cc23)c1F [P-2175, Propane-1-sulfonic acid {2,4-difluoro-3-[5-(2-methyl-2H-pyrazol-3-yl)-1H-pyrrolo[2,3-b]pyridine-3-carbonyl]-phenyl}-amide]
≤ 10 µM	≤ 10 µM	≤ 10 µM	≤ 10 µM	≤ 10 µM	≤ 10 µM	–	CCCS(=O)(=O)Nc1ccc(F)c(C(=O)c2c[nH]c3ncc(O)cc23)c1F [P-2204, Propane-1-sulfonic acid [2,4-difluoro-3-(5-hydroxy-1H-pyrrolo[2,3-b]pyridine-3-carbonyl)-phenyl]-amide]
≤ 10 µM	≤ 10 µM	≤ 10 µM	≤ 10 µM	≤ 10 µM	≤ 10 µM	–	CCCS(=O)(=O)Nc1ccc(F)c(C(=O)c2c[nH]c3ncc(-c4ccnc(F)c4)cc23)c1F [P-2192, Propane-1-sulfonic acid {2,4-difluoro-3-[5-(2-fluoro-pyridin-4-yl)-1H-pyrrolo[2,3-b]pyridine-3-carbonyl]-phenyl}-amide]
